Consider 3 molecules from paper PMC7019114, “Bioactivity, Compounds Isolated, Chemical Qualitative, and Quantitative Analysis of Cymbaria daurica Extracts” (Frontiers in Pharmacology, 2020).

The structures appear in SMILES notation.

The test system of experiment [1] is streptozotocin-induced diabetic rats. Set-up: method as in Huang et al., 2010. The conditions noted are these: intravenous injection, ref Huang et al., 2010; cited from earlier work.
The test system of experiment [2] is intestinal inflammation model. On the set-up: method as in Carrillo-Ocampo et al., 2013. The conditions noted are these: ref Carrillo-Ocampo et al., 2013; cited from earlier work.
Experiment [3] has as its system tyrosine phosphatase SHP-1. Set-up: method as in Pesce et al., 2015. The conditions noted are these: U937 cell line; ref Pesce et al., 2015; cited from earlier work.
Experiment [4] concerns LPS-induced NO production in RAW 264.7 cell. Kind of experiment: Nitric oxide assay (Griess test), LPS-induced NO production. The conditions noted are these: Mus musculus; RAW264.7 cell, LPS 1 μg/mL, positive control, n = 5; read-out: IC50 of inhibitory activity on LPS-induced NO production. It is filed as cell-based. The method, then:
RAW 264.7 mouse macrophages were cultured in high glucose DMEM supplemented with 10% FBS and a mixture of penicillin and streptomycin. The cells were maintained in a humidified incubator with an atmosphere of 5% CO2 at 37°C. RAW 264.7 cells were plated at a density of 5 × 10^5 cells/mL in 24-well plates, cultured for 12 h, and then treated with LPS (1 μg/mL) and incubated for 4 h. Thereafter, the cells were treated with different concentrations (25, 50, 100, 200, and 400 μg/mL) of C. daurica extracts (water, n-butanol, ethyl acetate, and petroleum-ether extracts) and incubated for an additional 20 h. […] The amount of NO in the medium was detected using the Griess test. One hundred microliters of each supernatant were mixed with equal volume of Griess reagent (1% sulfanilamide in 5% phosphoric acid and 0.1% naphthylethylenediamine dihydrochloride in water). The absorbance of the mixture at 550 nm and concentration of nitrite were determined using serially diluted sodium nitrite as the standard ([Qiao et al., 2005]).
For orientation: Nitrite, measured by Griess reagent, commonly stands in for NO production.

Take `OC[C@H]1O[C@@H](O[C@@H]2OC=C[C@H]3[C@H](O)[C@@H]4O[C@]4(CO)[C@@H]23)[C@H](O)[C@@H](O)[C@@H]1O` [Compound 1, catalpol]: in experiment [1], the anti-hyperglycemic activity entry is listed as “exhibited anti-hyperglycemic activity in a dose-dependent manner”.

`C[C@@H]1O[C@@H](O[C@@H]2[C@@H](O)[C@H](OCCc3ccc(O)c(O)c3)O[C@H](CO)[C@H]2OC(=O)/C=C/c2ccc(O)c(O)c2)[C@H](O)[C@H](O)[C@H]1O` [Compound 7, verbascoside]: the “presence of pro-inflammatory molecules” value in experiment [2] was “decreased the presence of pro-inflammatory molecules”. Besides, the “activity of tyrosine phosphatase SHP-1” value in experiment [3] is “increasing the activity of tyrosine phosphatase SHP-1”.

As for `COc1ccc2c(c1)c(CC(=O)O)c(C)n2C(=O)c1ccc(Cl)cc1` [Indomethacin], the IC50 in experiment [4] amounted to 60 ± 0.8 µM.

For orientation: IC50 means the point on the concentration scale where inhibition reaches its midpoint.
